# Columns and labels:
# FLT3 D835Y = molecular target: T1, FLT3 D835Y (Homo sapiens, UniProt P36888, D835Y); experiment: KINOMEScan-based kinase selectivity assay; type: binding; conditions: 300 nmol/L, n = 2
# T1 construct: purchased DiscoverX Corporation (Fremont, CA, USA)
# Description: (§1) The KINOMEScan‐based kinase selectivity assay was performed at the DiscoverX Corporation (Fremont, CA, USA). The panel of growth inhibition assay and subsequent bioinformatics analysis (Fig EV1) were performed at Eurofins Inc. (St. Charles, MO, USA), using OncoPanel 240 or 60. Details of the procedures of cell proliferation assay, caspase‐3/7 activity assay, immunoblotting, and immunohistochemistry are described in Appendix Supplementary Methods.
# HIPK4 = molecular target: T2, HIPK4 (Homo sapiens, UniProt Q8NE63); experiment: KINOMEScan-based kinase selectivity assay; type: binding; conditions: 300 nmol/L, n = 2
# T2 construct: purchased DiscoverX Corporation (Fremont, CA, USA)
# T2 sequence (Q8NE63 whole entry): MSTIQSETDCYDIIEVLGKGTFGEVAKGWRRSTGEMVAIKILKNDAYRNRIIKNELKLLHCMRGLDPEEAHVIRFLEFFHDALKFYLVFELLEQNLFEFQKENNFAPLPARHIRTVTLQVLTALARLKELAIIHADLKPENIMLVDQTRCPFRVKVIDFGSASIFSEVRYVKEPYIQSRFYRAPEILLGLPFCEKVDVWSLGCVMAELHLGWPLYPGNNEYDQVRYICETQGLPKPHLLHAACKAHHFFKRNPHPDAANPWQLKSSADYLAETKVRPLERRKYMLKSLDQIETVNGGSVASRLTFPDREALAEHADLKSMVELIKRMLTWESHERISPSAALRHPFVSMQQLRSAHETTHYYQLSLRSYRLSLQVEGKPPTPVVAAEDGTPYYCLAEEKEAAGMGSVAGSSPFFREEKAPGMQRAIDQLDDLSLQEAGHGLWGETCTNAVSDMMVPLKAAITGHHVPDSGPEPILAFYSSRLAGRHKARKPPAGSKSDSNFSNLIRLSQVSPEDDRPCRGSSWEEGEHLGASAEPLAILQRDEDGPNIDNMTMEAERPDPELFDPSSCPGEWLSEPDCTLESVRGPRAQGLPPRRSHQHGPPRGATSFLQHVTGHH
# Description: as §1
# HIPK3 = molecular target: T3, HIPK3 (Homo sapiens, UniProt Q9H422); experiment: KINOMEScan-based kinase selectivity assay; type: binding; conditions: 300 nmol/L, n = 2
# T3 construct: purchased DiscoverX Corporation (Fremont, CA, USA)
# Description: as §1
# HIPK2 = HIPK2 (Homo sapiens, UniProt Q9H2X6); experiment: KINOMEScan-based kinase selectivity assay; type: binding; design: purchased DiscoverX Corporation (Fremont, CA, USA)
# Chain of HIPK2 (Q9H2X6 whole entry): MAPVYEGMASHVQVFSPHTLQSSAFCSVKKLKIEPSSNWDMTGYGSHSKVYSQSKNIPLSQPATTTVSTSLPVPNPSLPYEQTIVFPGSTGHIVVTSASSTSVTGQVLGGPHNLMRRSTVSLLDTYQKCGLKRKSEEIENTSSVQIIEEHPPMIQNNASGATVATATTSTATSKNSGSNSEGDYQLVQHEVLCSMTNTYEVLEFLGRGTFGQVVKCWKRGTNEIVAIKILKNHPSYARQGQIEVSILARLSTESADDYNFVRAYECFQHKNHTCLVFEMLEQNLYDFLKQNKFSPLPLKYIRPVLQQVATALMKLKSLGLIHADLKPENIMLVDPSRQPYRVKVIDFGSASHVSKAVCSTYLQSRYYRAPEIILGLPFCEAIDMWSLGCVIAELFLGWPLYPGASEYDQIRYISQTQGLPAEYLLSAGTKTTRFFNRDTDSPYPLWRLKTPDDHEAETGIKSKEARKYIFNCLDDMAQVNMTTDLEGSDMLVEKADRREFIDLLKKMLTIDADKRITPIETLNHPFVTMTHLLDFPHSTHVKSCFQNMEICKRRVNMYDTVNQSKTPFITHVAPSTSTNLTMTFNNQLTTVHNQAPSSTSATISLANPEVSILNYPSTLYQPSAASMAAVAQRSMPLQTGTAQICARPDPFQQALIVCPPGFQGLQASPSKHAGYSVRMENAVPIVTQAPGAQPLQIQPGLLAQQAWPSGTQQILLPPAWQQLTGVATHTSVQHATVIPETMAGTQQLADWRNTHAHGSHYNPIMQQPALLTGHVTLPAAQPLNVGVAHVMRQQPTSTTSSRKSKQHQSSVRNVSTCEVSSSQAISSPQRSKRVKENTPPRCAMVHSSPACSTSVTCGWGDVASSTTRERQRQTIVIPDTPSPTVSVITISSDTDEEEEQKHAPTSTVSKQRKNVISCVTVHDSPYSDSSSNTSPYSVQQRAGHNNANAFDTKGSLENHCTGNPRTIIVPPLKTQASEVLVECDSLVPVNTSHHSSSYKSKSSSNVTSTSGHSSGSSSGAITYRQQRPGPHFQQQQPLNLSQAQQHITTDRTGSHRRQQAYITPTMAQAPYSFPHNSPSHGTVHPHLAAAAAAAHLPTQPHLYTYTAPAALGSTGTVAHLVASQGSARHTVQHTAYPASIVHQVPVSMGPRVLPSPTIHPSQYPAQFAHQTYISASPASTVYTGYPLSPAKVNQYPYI
# Description: as §1, with “Charles, MO, USA), using OncoPanel 240 or 60.” left out
# DYRK1B = DYRK1B (Homo sapiens, UniProt Q9Y463); experiment: KINOMEScan-based kinase selectivity assay; type: binding; design: purchased DiscoverX Corporation (Fremont, CA, USA)
# Chain of DYRK1B (Q9Y463 whole entry): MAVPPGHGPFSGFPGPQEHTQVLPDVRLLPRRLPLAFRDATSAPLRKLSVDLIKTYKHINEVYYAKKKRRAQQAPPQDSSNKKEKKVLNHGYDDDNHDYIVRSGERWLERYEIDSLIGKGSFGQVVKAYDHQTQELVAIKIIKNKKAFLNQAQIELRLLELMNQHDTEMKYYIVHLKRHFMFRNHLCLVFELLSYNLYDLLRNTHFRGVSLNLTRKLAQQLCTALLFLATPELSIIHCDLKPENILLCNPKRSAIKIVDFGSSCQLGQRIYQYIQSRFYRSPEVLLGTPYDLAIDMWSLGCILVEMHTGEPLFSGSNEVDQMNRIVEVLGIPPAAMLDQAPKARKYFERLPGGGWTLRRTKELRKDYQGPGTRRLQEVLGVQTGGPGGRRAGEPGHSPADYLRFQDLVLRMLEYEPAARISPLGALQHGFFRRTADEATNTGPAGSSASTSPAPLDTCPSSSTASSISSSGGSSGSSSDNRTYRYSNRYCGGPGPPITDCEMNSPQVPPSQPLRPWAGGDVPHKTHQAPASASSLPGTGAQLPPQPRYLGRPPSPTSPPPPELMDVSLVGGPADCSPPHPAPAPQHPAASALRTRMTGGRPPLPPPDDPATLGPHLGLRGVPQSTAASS
# Description: as §1, with “Charles, MO, USA), using OncoPanel 240 or 60.” left out
# NCI-H1048 xenografts = experiment: Efficacy study in NCI-H1048 xenograft model; type: in vivo, Balb/c nude mice; conditions: 50 mg/kg, twice weekly regimen
# Description: (§2) MDA‐MB‐468 (5 × 10^6), NCI‐H1048 (5 × 10^6), or MV‐4‐11 (2 × 10^6) cells in Matrigel were subcutaneously inoculated into the left flanks of Balb/c nude mice (7‐ to 8‐week‐old females). When xenografted tumors grew to a sufficient volume, the tumor diameter was measured and its volume was calculated as follows:
# (§3) Tumor volume=long diameter×short diameter×short diameter×(1/2)
# (§4) Mice having a tumor of size approximately 200 mm^3 were used in efficacy or in vivo pharmacodynamics studies. T‐025 was dissolved in 0.5% methylcellulose solution. For the efficacy study, after randomized grouping, mice were treated with T‐025 twice daily once or twice weekly for 2 or 3 weeks. The mouse tumor volume and body weight were measured every 2–3 days.
# SUM-159 xenografts = experiment: In vivo anti-tumor efficacy study in SUM-159 xenografts; conditions: authors' response in review process file
# From the text: EMBO Molecular Medicine - Peer Review Process File altering the spliciosome in non transformed cells (i.e. human mammary epithelial cells or MCF10A immortalized but not transform cells)
# Although alternative splicing of BCLAF1 is reported to have an additional function in colorectal cancer (Zhou et al, 2014), the reported AS variant was different from the AS variant (lacking exon […]
# AS in both cancer cell lines (HCT116) and untransformed cell lines (hTERT) (Funnell et al, 2017). […]
# specific to transformed cells.
# BJ) had relatively low expression of CLK2 and less growth-suppressive sensitivity to T-025 (Fig […]
# rendered cancer cells more sensitive to T-025. […]
# short-term treatment with T-025 causes apoptosis only in cancer cells with high expression of CLK2 or with activated MYC, but not in normal tissue. Therefore, in the mouse model, intermittent […]
# - Figure 4 D, E, and F: it is not specified the name of all cancer dell lines used in the study. This is […]
# relevant the work. If only SKBR3 and AU565 cell lines have a high MYC CVN, and consequently are more sensitive to T-025, why did the authors use MDA-MB 468 cell line to do the experiments of Figure 2 and 3? Please clarify. In addition, confirmation in an alternative breast cancer cell line is […]
# YSK4 = molecular target: T4, YSK4 (Homo sapiens, UniProt Q56UN5); experiment: KINOMEScan-based kinase selectivity assay; type: binding
# T4 construct: purchased DiscoverX Corporation (Fremont, CA, USA)
# T4 sequence (Q56UN5 whole entry): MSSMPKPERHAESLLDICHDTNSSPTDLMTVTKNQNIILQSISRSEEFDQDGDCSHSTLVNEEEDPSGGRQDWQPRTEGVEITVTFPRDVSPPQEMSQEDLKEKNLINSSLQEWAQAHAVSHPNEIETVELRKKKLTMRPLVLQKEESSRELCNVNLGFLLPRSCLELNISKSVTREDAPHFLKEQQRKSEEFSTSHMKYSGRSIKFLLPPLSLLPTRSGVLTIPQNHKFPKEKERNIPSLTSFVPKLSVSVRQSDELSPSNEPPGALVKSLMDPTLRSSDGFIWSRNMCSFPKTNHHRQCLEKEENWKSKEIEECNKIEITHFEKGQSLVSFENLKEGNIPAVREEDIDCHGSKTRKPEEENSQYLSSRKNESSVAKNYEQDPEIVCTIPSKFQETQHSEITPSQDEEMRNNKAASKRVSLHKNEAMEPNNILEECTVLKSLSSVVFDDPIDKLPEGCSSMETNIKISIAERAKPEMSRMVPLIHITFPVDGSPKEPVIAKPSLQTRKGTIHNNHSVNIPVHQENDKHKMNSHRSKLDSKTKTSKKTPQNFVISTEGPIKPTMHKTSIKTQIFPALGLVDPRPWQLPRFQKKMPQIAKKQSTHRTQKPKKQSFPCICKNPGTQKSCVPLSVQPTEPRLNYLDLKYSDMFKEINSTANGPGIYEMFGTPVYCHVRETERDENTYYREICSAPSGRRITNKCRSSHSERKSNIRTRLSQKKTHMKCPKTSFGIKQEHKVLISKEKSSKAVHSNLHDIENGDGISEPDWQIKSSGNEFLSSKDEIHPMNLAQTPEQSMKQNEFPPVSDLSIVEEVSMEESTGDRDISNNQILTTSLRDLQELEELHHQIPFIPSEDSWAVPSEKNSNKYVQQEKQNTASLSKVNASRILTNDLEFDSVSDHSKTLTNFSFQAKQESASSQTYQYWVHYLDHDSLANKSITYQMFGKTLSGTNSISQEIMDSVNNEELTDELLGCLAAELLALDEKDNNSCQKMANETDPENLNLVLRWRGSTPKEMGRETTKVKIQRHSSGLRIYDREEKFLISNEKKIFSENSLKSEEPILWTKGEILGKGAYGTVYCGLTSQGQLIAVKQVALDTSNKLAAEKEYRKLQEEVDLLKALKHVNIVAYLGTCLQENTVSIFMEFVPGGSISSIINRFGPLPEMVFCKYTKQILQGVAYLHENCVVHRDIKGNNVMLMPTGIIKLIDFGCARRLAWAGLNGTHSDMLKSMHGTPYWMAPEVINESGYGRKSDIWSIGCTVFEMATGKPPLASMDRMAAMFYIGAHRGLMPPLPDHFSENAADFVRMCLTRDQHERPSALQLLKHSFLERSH
# Description: as §1, with “Charles, MO, USA), using OncoPanel 240 or 60.” left out
# DYRK2 = molecular target: T5, DYRK2 (Homo sapiens, UniProt Q92630); experiment: KINOMEScan-based kinase selectivity assay; type: binding
# T5 construct: purchased DiscoverX Corporation (Fremont, CA, USA)
# T5 sequence (Q92630 whole entry): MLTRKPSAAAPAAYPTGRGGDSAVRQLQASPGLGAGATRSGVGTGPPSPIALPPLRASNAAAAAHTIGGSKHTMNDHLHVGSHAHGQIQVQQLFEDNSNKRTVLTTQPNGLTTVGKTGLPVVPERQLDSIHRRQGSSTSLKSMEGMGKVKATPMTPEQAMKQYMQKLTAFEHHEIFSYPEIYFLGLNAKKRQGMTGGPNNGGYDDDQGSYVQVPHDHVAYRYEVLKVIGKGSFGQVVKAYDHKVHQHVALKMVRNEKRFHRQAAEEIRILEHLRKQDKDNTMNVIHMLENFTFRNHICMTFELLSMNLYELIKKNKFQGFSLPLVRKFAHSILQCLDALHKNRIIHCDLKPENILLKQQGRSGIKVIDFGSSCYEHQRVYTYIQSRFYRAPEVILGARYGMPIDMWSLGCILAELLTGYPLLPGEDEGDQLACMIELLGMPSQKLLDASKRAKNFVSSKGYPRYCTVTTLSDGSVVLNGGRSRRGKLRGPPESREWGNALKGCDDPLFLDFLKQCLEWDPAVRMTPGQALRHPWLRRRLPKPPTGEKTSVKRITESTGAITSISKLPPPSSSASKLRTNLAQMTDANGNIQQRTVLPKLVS
# Description: as §1, with “Charles, MO, USA), using OncoPanel 240 or 60.” left out
# CLK4 = molecular target: T6, CLK4 (Homo sapiens, UniProt Q9HAZ1); experiment: KINOMEScan-based kinase selectivity assay; type: binding
# T6 construct: purchased DiscoverX Corporation (Fremont, CA, USA)
# T6 sequence (Q9HAZ1 whole entry): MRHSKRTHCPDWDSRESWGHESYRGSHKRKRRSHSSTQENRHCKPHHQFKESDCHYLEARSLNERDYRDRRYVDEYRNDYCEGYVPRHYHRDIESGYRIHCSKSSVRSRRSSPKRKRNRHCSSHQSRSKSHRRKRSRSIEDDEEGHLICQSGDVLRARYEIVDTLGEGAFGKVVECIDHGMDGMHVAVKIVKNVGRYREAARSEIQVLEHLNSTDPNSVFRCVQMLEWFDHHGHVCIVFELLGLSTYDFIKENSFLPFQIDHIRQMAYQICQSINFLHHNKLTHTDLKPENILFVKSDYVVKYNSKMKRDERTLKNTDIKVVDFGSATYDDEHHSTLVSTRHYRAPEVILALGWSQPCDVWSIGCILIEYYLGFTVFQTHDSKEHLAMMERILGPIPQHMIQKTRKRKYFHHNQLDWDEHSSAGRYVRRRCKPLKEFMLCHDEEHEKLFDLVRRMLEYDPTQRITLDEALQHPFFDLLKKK
# Description: as §1, with “Charles, MO, USA), using OncoPanel 240 or 60.” left out
# [1] = test system: MV-4-11 AML cell line xenografts; experiment: Efficacy study in MV-4-11 xenograft model; type: in vivo, Balb/c nude mice; conditions: 37.5 and 50 mg/kg
# Description: as §2, §3, §4
# COLO320HSR = experiment: Panel of growth inhibition assays (OncoPanel 240); type: cell-based; conditions: Homo sapiens, COLO-320-HSR; 72 h; colorectal cancer; read-out: IC50 (nmol/L) Oncopanel
# Description: as §1
# (§5) Panel of growth inhibition assay and subsequence bioinformatics analysis (at […]
# (§6) A growth inhibition assay panel and subsequent bioinformatics analysis were performed at Eurofins Inc. (MO, U.S.A.) by utilizing Oncopanel240 or 60.
# (§7) According to the study reports from Eurofins Inc., cells were seeded into 384 well plates at a single cell density in standardized media. After 24 hours, the test compounds were added and the plate was incubated continuously for 72 hours. Cells were then fixed and stained to visualize nuclei. The number of nuclei was counted and normalized.
# (§8) Cellular response parameters were calculated using nonlinear regression to a sigmoidal single-site dose response model and the IC50 value of each cell line was calculated.
# (§9) Genomic features were binned into six distinct categories, each of which was considered to be a “biomarker-positive” grouping: Mutated (non-synonymous, coding, and non-coding mutations), Amplified, Deleted, Overexpressed, Mutated or amplified (gain-of-function), and Mutated or deleted (loss-of-function). Two orthogonal significance tests were performed on each genomic feature as follows.
# (§10) Student’s t-test: For each genomic feature within each of the six above categories, IC50 cell count values for biomarker-positive and biomarker-negative groups were […]
# HT = experiment: Panel of growth inhibition assays (OncoPanel 240); type: cell-based; conditions: Homo sapiens, 72 h, lymphoma, read-out: IC50 (Oncopanel, cell count)
# Description: as §1, §5, §6, §7, §8, §9, §10
smiles,measurement,setting,value
"CNc1nc(NCc2ncccn2)c2c(-c3ccc4ncccc4c3)c[nH]c2n1 [T-025, N ^2‐methyl‐N ^4‐[pyrimidin‐2‐ylmethyl]‐5‐[quinolin‐6‐yl]‐7H‐pyrrolo[2,3‐d]pyrimidine‐2,4‐diamine]",inhibition at 0.3 µM,FLT3 D835Y,93.3%
same,inhibition at 0.3 µM,HIPK4,95.6%
same,inhibition at 0.3 µM,HIPK3,95.1%
same,Kd,HIPK2,96 nM
same,inhibition at 0.3 µM,"HIPK2; 300 nmol/L, n = 2",96%
same,Kd,DYRK1B,1.5 nM
same,inhibition at 0.3 µM,"DYRK1B; 300 nmol/L, n = 2",99.6%
same,"anti-tumor efficacy, tumor volume",NCI-H1048 xenografts,exhibited in vivo anti‐tumor efficacy
same,body weight loss,NCI-H1048 xenografts,no significant body weight loss
same,anti-tumor efficacy,SUM-159 xenografts,showed significant anti-tumor properties
same,Kd,YSK4,33 nM
same,inhibition at 0.3 µM,"YSK4; 300 nmol/L, n = 2",97.5%
same,Kd,DYRK2,32 nM
same,inhibition at 0.3 µM,"DYRK2; 300 nmol/L, n = 2",98.6%
same,Kd,CLK4,0.61 nM
same,inhibition at 0.3 µM,"CLK4; 300 nmol/L, n = 2",100%
same,"anti-tumor efficacy, tumor volume",[1],profound anti‐tumor efficacies
same,IC50,COLO320HSR,30.1 nmol/L
same,IC50,HT,228 nM
